The target of the experiment is Vent(exo-) DNA polymerase (Thermococcus litoralis, UniProt P30317, D141A/E143A). The conditions noted are these: natural primer/template PA/T0, 40 °C, supplied reaction buffer, dATP 10–800 μM.

The record followed here is PMC1636466 (Nucleic Acids Research, 2006).

As usually defined, the Km is the concentration of substrate that gives half-maximal velocity. On to `Nc1ncnc2c1ncn2[C@H]1C[C@H](O)[C@@H](COP(=O)(O)OP(=O)(O)OP(=O)(O)O)O1` [dATP], for which the Km was found to be 5.52 µM.
